In patent publication US7534785B2, “3,6-dihydro-2-oxo-6H-1,3,4,-thiadiazine derivatives” (Merck Patent Gesellschaft, priority 2005, dated 2009):

What follows are compounds tested against T1, Met kinase (Homo sapiens, UniProt P08581) (assay: Met kinase inhibition, flashplate method). Conditions: 1 μM ATP, substrate pAGLT, 3 hrs at room temperature, read-out: IC50 (enzyme).
T1 construct: 6His (N); purchased Upstate 14-526; host or cells: Sf21 insect cells (S. frugiperda), baculovirus
T1 sequence (P08581 25-1390): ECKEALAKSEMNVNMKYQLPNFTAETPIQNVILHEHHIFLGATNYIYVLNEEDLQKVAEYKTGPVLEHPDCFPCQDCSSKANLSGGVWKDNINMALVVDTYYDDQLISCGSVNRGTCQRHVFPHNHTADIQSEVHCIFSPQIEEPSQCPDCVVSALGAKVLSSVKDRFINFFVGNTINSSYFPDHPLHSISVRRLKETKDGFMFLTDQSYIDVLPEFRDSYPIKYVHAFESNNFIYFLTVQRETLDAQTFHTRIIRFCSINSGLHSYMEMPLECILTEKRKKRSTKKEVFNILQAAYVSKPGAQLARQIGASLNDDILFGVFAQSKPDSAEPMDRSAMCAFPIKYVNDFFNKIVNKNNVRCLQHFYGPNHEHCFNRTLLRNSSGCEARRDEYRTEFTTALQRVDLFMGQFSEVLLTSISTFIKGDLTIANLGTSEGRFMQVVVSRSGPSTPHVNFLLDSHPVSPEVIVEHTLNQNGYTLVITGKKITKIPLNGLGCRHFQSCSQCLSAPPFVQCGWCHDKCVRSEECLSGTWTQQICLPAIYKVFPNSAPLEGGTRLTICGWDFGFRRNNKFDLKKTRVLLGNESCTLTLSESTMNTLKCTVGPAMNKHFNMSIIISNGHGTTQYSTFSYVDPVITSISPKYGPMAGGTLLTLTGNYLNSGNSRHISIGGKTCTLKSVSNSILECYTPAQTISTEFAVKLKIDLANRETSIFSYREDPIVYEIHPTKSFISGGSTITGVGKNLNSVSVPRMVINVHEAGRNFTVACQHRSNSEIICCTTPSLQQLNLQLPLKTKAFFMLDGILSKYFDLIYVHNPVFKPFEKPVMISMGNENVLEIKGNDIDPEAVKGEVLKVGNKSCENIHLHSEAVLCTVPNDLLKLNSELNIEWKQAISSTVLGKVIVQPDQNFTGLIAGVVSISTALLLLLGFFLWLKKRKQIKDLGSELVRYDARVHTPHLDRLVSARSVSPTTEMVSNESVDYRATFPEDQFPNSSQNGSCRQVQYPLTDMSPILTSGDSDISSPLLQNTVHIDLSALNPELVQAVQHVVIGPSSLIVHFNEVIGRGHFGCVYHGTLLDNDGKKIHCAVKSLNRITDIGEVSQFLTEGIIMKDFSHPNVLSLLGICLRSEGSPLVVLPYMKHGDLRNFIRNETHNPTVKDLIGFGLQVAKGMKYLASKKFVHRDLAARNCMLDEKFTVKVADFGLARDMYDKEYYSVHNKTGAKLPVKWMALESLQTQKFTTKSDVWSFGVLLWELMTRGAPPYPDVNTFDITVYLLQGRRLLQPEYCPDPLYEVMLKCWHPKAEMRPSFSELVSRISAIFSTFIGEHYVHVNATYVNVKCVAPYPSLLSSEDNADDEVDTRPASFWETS
Type: biochemical
Description: According to the manufacturer's data (Met, active, upstate, catalogue No. 14-526), Met kinase is expressed for the purposes of protein production in insect cells (Sf21; S. frugiperda) and subsequent affinity-chromatographic purification as “N-terminal 6His-tagged” recombinant human protein in a baculovirus expression vector.
The test plates used are 96-well Flashplate® microtitre plates from Perkin Elmer (Cat. No. SMP200). The components of the kinase reaction described below are pipetted into the assay plate. The Met kinase and the substrate poly Ala-Glu-Lys-Tyr, (pAGLT, 6:2:5:1), are incubated for 3 hrs at room temperature with radioactively labelled ^33P-ATP in the presence and absence of test substances in a total volume of 100 μl. The reaction is terminated using 150 μl of a 60 mM EDTA solution. After incubation for a further 30 min at room temperature, the supernatants are filtered off with suction, and the wells are washed three times with 200 μl of 0.9% NaCl solution each time. The measurement of the bound radioactivity is carried out by means of a scintillation measuring instrument (Topcount NXT, Perkin-Elmer).
The full value used is the inhibitor-free kinase reaction. This should be approximately in the range 6000-9000 cpm. The pharmacological zero value used is staurosporin in a final concentration of 0.1 mM. The inhibitory values (IC50) are determined using the RS1_MTS program.
Kinase Reaction Conditions per Well: • 30 μl of assay buffer • 10 μl of substance to be tested in assay buffer with 10% of DMSO • 10 μl of ATP (final concentration 1 μM cold, 0.35 μCi of ^33P-ATP) • 50 μl of Met kinase/substrate mixture in assay buffer; • (10 ng of enzyme/well, 50 ng of pAGLT/well)
Solutions Used: • Assay Buffer: • 50 mM HEPES • 3 mM magnesium chloride • 3 μM sodium orthovanadate • 3 mM manganese(II) chloride • 1 mM dithiothreitol (DTT) • pH=7.5 (to be set using sodium hydroxide) • Stop Solution: • 60 mM Titriplex III (EDTA) • ^33P-ATP: Perkin-Elmer; • Met kinase: Upstate, Cat. No. 14-526, Stock 1 μg/10 μl; spec. activity 954 U/mg; • Poly-Ala-Glu-Lys-Tyr, 6:2:5:1:Sigma Cat. No. P1152
Work on CN1CCC(CNC(=O)Nc2cccc(CN3N=C(c4ccc(Cl)cc4)CSC3=O)c2)C1 (centres unmarked) [Compound A1, 1-{3-[5-(4-chlorophenyl)-2-oxo-6H-1,3,4-thiadiazin-3-ylmethyl]phenyl}-3-(1-methylpyrrolidin-3-ylmethyl)urea] yielded an IC50 of 10 to 1000 nM.
CCNC(=O)Nc1cccc(CN2N=C(c3cc(Cl)ccc3O)CSC2=O)c1 [Compound A2] showed an IC50 of 10 to 1000 nM.
In the case of CCN(CC)CCCNC(=O)Nc1cccc(CN2N=C(c3ccc(Cl)cc3)CSC2=O)c1 [Compound A3], the IC50 is reported as 10 to 1000 nM.
With C[C@H](O)CNC(=O)Nc1cccc(CN2N=C(c3ccc(Cl)cc3)CSC2=O)c1 [Compound A4] the IC50 was 10 to 1000 nM.
With O=C(NCCO)Nc1cccc(CN2N=C(c3ccc(Cl)cc3)CSC2=O)c1 [Compound A5] the IC50 was 10 to 1000 nM.
CCOC(=O)C(=O)Nc1cccc(CN2N=C(c3ccc(Cl)cc3)CSC2=O)c1 [Compound A9, ethyl N-{3-[5-(4-chlorophenyl)-2-oxo-6H-1,3,4-thiadiazin-3-ylmethyl]phenyl}oxalaminate] was tested, and the IC50 was 10 to 1000 nM.
CNCCNC(=O)Nc1cccc(CN2N=C(c3ccc(C#N)cc3)CSC2=O)c1 [Compound A10] was tested, and the IC50 was 10 to 1000 nM.
Work on CN(C)C(=O)Nc1cccc(CN2N=C(c3cc(Cl)ccc3O)CSC2=O)c1 [Compound A12] yielded an IC50 of 10 to 1000 nM.
